# Patent US10626113B2, “Phosphodiesterase inhibitors and uses thereof” (THE TRUSTEES OF COLUMBIA UNIVERSITY IN THE CITY OF NEW YORK, priority 2012, dated 2020)
# Read-outs that look alike come from different tables or passages of the source.
# Assays:
# [1] = test system: APP/PS1 mice; test: Contextual fear conditioning (fear memory); format: in vivo; conditions: 3 mg/kg i.p. for 3 weeks
# Protocol: Fear conditioning was assessed as described in B. Gong, O. V. Vitolo, F. Trinchese, S. Liu, M. Shelanski, O. Arancio, Persistent improvement in synaptic and cognitive functions in an Alzheimer mouse model after rolipram treatment, J. Clin. Invest. 114 (2004) 1624-1634; F. Trinchese, S. Liu, F. Battaglia, S. Walter, P. M. Mathews, O. Arancio, Progressive age-related development of Alzheimer-like pathology in APP/PS1 mice, Ann. Neurol. 55 (2004) 801-814; and B. Gong, Z. Cao, P. Zheng, O. V. Vitolo, S. Liu, A. Staniszewski, D. Moolman, H. Zhang, M. Shelanski, O. Arancio, Ubiquitin hydrolase Uch-L1 rescues beta-amyloid-induced decreases in synaptic function and contextual memory, Cell 126 (2006) 775-788; each herein incorporated by reference in its entirety. […] Freezing behavior, defined as the absence of movements except for respiratory excursions, was scored using Freezeview software (Med Associates, St. Albans, Vt.). Contextual fear learning was evaluated 24 hrs after training by measuring freezing responses for 5 min in the same chamber where the mice were trained. Cued fear learning was evaluated 24 hrs after contextual testing. The mice were placed in a novel context for 2 min (pre-CS test), after which they were given a CS for 3 min (CS test), and freezing behavior was measured during the first 30 sec that mimic the CS-US conditioning and the remaining 2.5 min. […]
# [2] = Pharmacokinetic study in mice; format: in vivo; conditions: 25 mg/kg i.p.
compound,measurement,setting,value
"COc1ccc(CNc2c3c(nc4ccc(C#N)cc24)CCN(C(C)=O)C3)cc1Cl [Compound H, 2-acetyl-10-[(3-chloro-4-methoxybenzyl)amino]-1,2,3,4-tetrahydrobenzo[b][1,6]naphthyridine-8-carbonitrile]",effect on contextual fear memory of WT mice,[1],no effect
same,"Cmax, brain",[2]; male C57Bl6 mice,492.25 ng/g
same,"Tmax, brain",[2]; male C57Bl6 mice,15 min
same,"Tmax, plasma",[2]; male C57Bl6 mice,15 min
same,"t1/2 elimination half-life, brain",[2]; male C57Bl6 mice,39 min
same,"t1/2 elimination half-life, plasma",[2]; male C57Bl6 mice,1.07 h
same,brain/plasma Cmax ratio,"[2]; male, C57Bl6, mouse, brain/plasma, ip, 25 mg/kg",0.31
same,MRT,"[2]; mouse, brain, ip, male C57Bl6 mice, read-out: MRT Mean Residence Time, brain",0.95 h
same,Cmax,"[2]; mouse, plasma, ip, male C57Bl6 mice",1570 ng/mL
same,MRT,"[2]; mouse, plasma, ip, male C57Bl6 mice, read-out: MRT Mean Residence Time, plasma",1.56 h
